Experimental data taken from patent US20250270206A1, “COMPOSITIONS AND METHODS FOR INHIBITION OF RAS” (TheRas, Inc., priority 2022, published 2025).
pIC50: −log10 of the molar value.

Tests used:
[1] = biological target: T1, GppNHp-loaded KRAS4b (amino acids 1-169) G12C/C118S (Homo sapiens, UniProt P01116, C118S/G12C); test: MALDI-TOF MS covalent Cys12 modification, GppNHp-loaded KRAS G12C; assay type: binding; conditions: 15 minutes reaction time, 1 μM protein, 1:2.5 protein to compound ratio
T1 construct: KRAS4b (amino acids 1-169) G12C/C118S protein; made in house
Protocol: (§1) MALDI-TOF MS analysis was performed using 1 μM protein target, and 1:2.5 protein to compound ratio was used.
(§2) Reaction: 1 μM of GppNHp, GTP, or GDP-loaded KRAS4b (amino acids 1-169) G12C/C118S protein (produced in-house by Protein Expression Laboratory, FNLCR/Leidos Biomed) in 20 mM 4-(2-hydroxyethyl)-1-piperazineethanesulfonic acid (HEPES) buffer containing 150 mM NaCl, 1 mM MgCl2, pH 7.3 was prepared freshly before assay. Ten-μL aliquots of protein were dispensed onto low volume 384-well plate, then 375 nL DMSO, and 25 nL of tested compounds from 5 mM DMSO stocks were added to appropriate wells using ECHO 555 acoustic liquid handler (Labcyte Inc.). For each reaction/assay, three blanks were prepared by mixing 10 μL of protein solution with 400 nL DMSO. The contents of the wells were carefully mixed by aspiration, and then each plate was sealed with an adhesive cover, centrifuged at 2000 g for 1 minute, and kept in the dark at room temperature until 5 min, 15 min, 30 min, 2 h, or 6 h collections.
(§3) Target pretreatment: Before each assay MALDI target (Bruker MPT 384 ground steel BC) was pre-treated by pipetting on each spot 0.75 μL of saturated sinapinic acid in acetonitrile (ACN).
(§4) Sample preparation: At collection time point, 2 μL of reaction mixtures were pipetted out into 20 μL MALDI matrix solution (saturated solution of sinapinic acid in 1:1 ACN:water solution containing 0.75% trifluoroacetic acid (TFA)) deposited on 384 well polypropylene plate. Resulting solution was mixed by aspiration, centrifuged at 2000 g for 1 minute, then 1 μL aliquots were dispensed on pre-treated MALDI target using Beckman Coulter Biomek FX^P 96/384-Span-8 Laboratory Automation Workstation. Finally, the MALDI target was dried under mild vacuum to produce spots with fine crystalline structure.
(§5) Measurements: MALDI-TOF measurements were performed on a Bruker Daltonics rapifleX Tissuetyper TOF-TOF mass spectrometer using linear mode and mass range from 18.6 to 21.6 kDa. Detector gain was set to 3.3× (483 V), sample rate to 5 GS/s, real time smoothing to medium (175 MHz), laser smart beam pattern was set to: “MS Thin Layer M5”, and the laser frequency was 10000 Hz. Spectra were automatically collected using custom AutoXecute method. Laser power was auto adjusted using fuzzy control. The peak selection range was set to be between 19000 and 21500 Da. Peak evaluation uses half width parameter set to be smaller than 40 Da for processed spectrograms (centroid peak detection: smoothed by SavitzkyGolay algorithm using 7 m/z width and 2 cycles; baseline was subtracted using median algorithm with flatness 1 and median level 0.01). Fuzzy control used Proteins/Oligonucleotides protocol with minimum half width 1/10 times above threshold. Up to 40000 satisfactory shots were collected in 10000 shot steps. Dynamic termination was implemented to finish data collection when peak signal/noise ratio reached a value of 50.
(§6) Spectra processing: Spectra were smoothed by SavitzkyGolay algorithm using 7 m/z width and three cycles. Centroid peak detection algorithm was used with signal to noise threshold set to 6, relative intensity threshold 4%, peak width 10 m/z and median baseline subtraction using flatness of 1 and median level of 0.01. Peak intensity and area under the peak were evaluated and recorded for all peaks between 19,300 Da and 21,550 Da.
(§7) Calculation of percent modification: Percent modification was calculated as a ratio of peak height for protein modified by compound to sum of peak height of remaining protein plus peak height for protein modified by compound. If multiple modifications were observed each was calculated as a ratio of peak height for given modification versus sum of peak heights for all observed protein species. Data reported in Table 5 are from the 15 minutes reaction time point.

[2] = system: pERK in NCI-H358 cells; test: Cell-based pERK HTRF assay; conditions: Homo sapiens, 0.5 h, 30 min incubation
Protocol: pERK HTRF assays (Perkin Elmer) were used to determine the effectiveness of compounds of the present disclosure in disrupting KRAS G12C protein/effector signaling in cells.
On Day 1, cells (NCI-H358) were seeded into 96-well plates at 4×10^4 cells/well in complete growth media (RPMI, 10% FBS).
On Day 2, cells were treated with compounds at 0.25% DMSO. The source plate was created with compounds diluted in media at 5-fold the final assay concentration. The compounds were run in a 9-point concentration curve starting at 75 μM, with a 3-fold dilution between concentrations. 20 μL was transferred onto the cell plates (final volume in wells was 100 μL). Plates were harvested after 30 min incubation by aspirating media and adding kit-supplied 1× supplemented lysis buffer to all wells (75 μL per well). Plates were then placed on a plate shaker and incubated at 850 rpm for an additional 30 min.
Antibody mixture solution was prepared by diluting aliquoted d2 and Eu Cryptate antibodies 1:20 in kit supplied detection buffer, then mixed the diluted antibodies solutions (1:1 v:v). 4 μL of this solution was then added to a 384-well detection plate (Perkin Elmer; 6008230).
Samples were homogenized by pipetting up and down and then transferred (16 μL of cell lysates) from the 96-well cell culture plate to two wells of the HTRF 384-well detection plate containing the antibody solution. Plates were centrifuged (524 g for 1 min) and allowed to incubate between 4 and 24 h at room temperature. Maximum signal is reached after 4 h incubation time and remains stable over a period of 24 hours. Therefore, readings can be made between 4 and 24 h of incubation. Plates were centrifuged again (524 g for 1 min) and analyzed on the EnVision plate reader using the following settings: Excitation 320 nm, Bandwidth 75 nm; Emission 615 nm, Bandwidth 85 nm; Gain 100%; Flashes 100; Lag 60 μs.

[3] = biological target: T2, Avi-KRAS G12C (1-169) GppNHp/RAF1 RBD-3×FLAG (52-151) (Homo sapiens, UniProt P01116, G12C); test: KRAS G12C-effector (RAF1 RBD) protein:protein interaction HTRF disruption assay; assay type: biochemical; conditions: PPI HTRF
T2 construct: Avi-KRAS G12C (1-169) GppNHp
Protocol: A protein:protein interaction (PPI) Homogeneous Time Resolved Fluorescence (HTRF) assay was used to determine the effectiveness of compounds of the present disclosure in disrupting KRAS G12C protein and effector (RAF1) binding.
The HTRF assay used the following reagents and proteins: 50 nM Avi-KRAS G12C (1-169) GppNHp/RAF1 RBD-3×FLAG (52-151); 75 nM Avi-RAF1 RBD-3×FLAG; Assay Buffer: 50 mM Tris pH 7.5, 100 mM NaCl, 5 mM MgCl2, 0.1% BSA, 0.01% Tween 20, 10% DMSO; Bead Buffer: 50 mM Tris pH 7.5, 0.01% Tween 20; Assay volume: 20 μL (384 well plate-low volume format); and Compound titration: 30-0.02 μM, 3× dilution series.
The HTRF assay employed the following protocol:
Compounds were dispensed in assay plate (384-well, Grenier Bione #784075) using Echo (model 555) with dose response settings: 200 nL final volume, titration from 100 μM as a 10-point dilution series. KRAS proteins were prepared in assay buffer, and dispensed on plates, 5 μL per well, then incubated for 1 h at room temperature, with 700 rpm shaking. RAF1 RBD were prepared in assay buffer, dispensed onto plates, 5 μL per well, and then incubated for 1 h at room temperature, with 700 rpm shaking. Reagent mix was then prepared and dispensed on plates, 10 μL per well, and then incubated for 1 h at room temperature, with 700 rpm shaking.
Plates were analyzed on an Envision plate reader using the following setting: Excitation 320 nm, Bandwidth 75 nm, Emission 615 nm, Bandwidth 85 nm; Gain 100%; Flashes 100; Lag 60 μs. Data was reported as percentage of activity, with DMSO as 100%. Data was plotted and analyzed using Prism 8.

[4] = biological target: T3, GTP-loaded KRAS4b (amino acids 1-169) G12C/C118S (Homo sapiens, UniProt P01116, C118S/G12C); test: MALDI-TOF MS covalent Cys12 modification, GTP-loaded KRAS G12C; assay type: binding; conditions: 15 minutes reaction time, 1 μM protein, 1:2.5 protein to compound ratio
T3 construct: KRAS4b (amino acids 1-169) G12C/C118S protein; made in house
Protocol: as §1, §2, §3, §4, §5, §6, §7

[5] = biological target: T4, GDP-loaded KRAS4b (amino acids 1-169) G12C/C118S (Homo sapiens, UniProt P01116, C118S/G12C); test: MALDI-TOF MS covalent Cys12 modification, GDP-loaded KRAS G12C; assay type: binding; conditions: 15 minutes reaction time, 1 μM protein, 1:2.5 protein to compound ratio
T4 construct: KRAS4b (amino acids 1-169) G12C/C118S protein; made in house
Protocol: as §1, §2, §3, §4, §5, §6, §7

SMILES	GppNHp-KRAS G12C percent of modification [1]	pIC50 [2]	pIC50 [3]	GTP-KRAS G12C percent of modification [4]	GDP-KRAS G12C percent of modification [5]
C=CC(=O)N1CCC(N(C)c2nc(OC[C@@]34CCCN3C[C@H](F)C4)nc3c(Cl)c(-c4ccc(F)c5sc(N)c(C#N)c45)ncc23)[C@H]1COC (mixture of isomers) [Compound 29, 4-(4-((rac-(2S,3R)-1-acryloyl-2-(methoxymethyl)pyrrolidin-3-yl)(methyl)amino)-8-chloro-2-(((2R,7aS)-2-fluorotetrahydro-1H-pyrrolizin-7a(5H)-yl)methoxy)pyrido[4,3-d]pyrimidin-7-yl)-2-amino-7-fluorobenzo[b]thiophene-3-carbonitrile]	A (percent of modification ≥70%)	≥ 7.00	≥ 6.30	A (percent of modification ≥70%)	A (percent of modification ≥70%)
C=CC(=O)N1CC[C@@H](N(C)c2nc(OC[C@@]34CCCN3C[C@H](F)C4)nc3c(F)c(-c4c(F)cc(F)c5sc(N)nc45)ncc23)C1 [Compound 5]	A (percent of modification ≥70%)	≥ 7.00	≥ 6.30	A (percent of modification ≥70%)	A (percent of modification ≥70%)
C=CC(=O)N1CC[C@@H](N(C)c2nc(OC[C@@]34CCCN3C[C@H](F)C4)nc3c(F)c(-c4ccc(F)c5sc(N)c(C#N)c45)ncc23)C1 [Compound 6, 2-amino-7-fluoro-4-[8-fluoro-2-[[(2R,8S)-2-fluoro-1,2,3,5,6,7-hexahydropyrrolizin-8-yl]methoxy]-4-[methyl-[(3R)-1-prop-2-enoylpyrrolidin-3-yl]amino]pyrido[4,3-d]pyrimidin-7-yl]benzothiophene-3-carbonitrile]	A (percent of modification ≥70%)	≥ 7.00	≥ 6.30	A (percent of modification ≥70%)	A (percent of modification ≥70%)
C=CC(=O)N1C[C@H](C)N(c2nc(OC[C@@]34CCCN3C[C@H](F)C4)nc3c(F)c(-c4ccc(F)c5sc(N)c(C#N)c45)ncc23)C[C@H]1C [Compound 7, 2-amino-4-[4-[(2S,5R)-2,5-dimethyl-4-prop-2-enoyl-piperazin-1-yl]-8-fluoro-2-[[(2R,8S)-2-fluoro-1,2,3,5,6,7-hexahydropyrrolizin-8-yl]methoxy]pyrido[4,3-d]pyrimidin-7-yl]-7-fluoro-benzothiophene-3-carbonitrile]	B (50% percent of modification <70%)	≥ 7.00	≥ 6.30	D (percent of modification <10%)	A (percent of modification ≥70%)
C=CC(=O)N1CC[C@@H](N(C)c2nc(OC[C@@]34CCCN3C[C@H](F)C4)nc3cc(-c4ccc(F)c5sc(N)c(C#N)c45)c(C(F)(F)F)nc23)C1 [Compound 8]	C (10%≤percent of modification <50%)	≥ 7.00	≥ 6.30	C (10%≤percent of modification <50%)	C (10%≤percent of modification <50%)
C=CC(=O)N1CCC(N(C)c2nc(OCCO)nc3c(F)c(-c4ccc(F)c5sc(N)c(C#N)c45)ncc23)[C@H]1C (stereo partly drawn) [Compound 35]	D (percent of modification <10%)	< 6.00	–	D (percent of modification <10%)	C (10%≤percent of modification <50%)
C=CC(=O)N1CCC(N(C)c2ncnc3c(F)c(-c4ccc(F)c5sc(N)c(C#N)c45)ncc23)[C@H]1C (stereo partly drawn) [Compound 36]	D (percent of modification <10%)	< 6.00	–	D (percent of modification <10%)	C (10%≤percent of modification <50%)
